Test results taken from patent publication US6620938B1, “Compounds that inhibit GRB2-SHC binding and process for preparing same” (Korea Research Institute of Bioscience and Biotechnology, priority 1999, dated 2003).
“And” between values parts separate entries of the source, which are not always exact repeats. Identical values can stand only once.

Key:
[1] = target: T1, Grb2-Shc binding (GST-Grb2 fusion protein, [3H]propionylated-hShc peptide) (Homo sapiens, UniProt P62993); test: Grb2-Shc binding inhibition, scintillation proximity assay; conditions: SPA, competition with [3H]propionylated-hShc peptide for GST-Grb2, room temperature 30 minutes, pH 7.4; read-out: concentration required for inhibiting the Grb2-Shc binding by 50% (IC50)
T1 construct: purchased Santa Cruz Biotech Inc
T1 sequence (P62993 whole entry, the tested form may be a part): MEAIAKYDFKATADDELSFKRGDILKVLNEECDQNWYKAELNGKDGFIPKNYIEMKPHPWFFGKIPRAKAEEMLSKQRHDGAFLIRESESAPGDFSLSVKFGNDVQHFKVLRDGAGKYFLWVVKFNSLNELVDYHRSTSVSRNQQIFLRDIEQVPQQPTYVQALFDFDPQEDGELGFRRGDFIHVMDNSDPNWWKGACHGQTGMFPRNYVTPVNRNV
Protocol: The activity of the inventive compound in inhibiting Grb2-Shc binding was determined in accordance with the scintillation proximity assay method by way of measuring the extents of competitive bindings of [^3H]propionylated-hShc peptide and the inventive compound toward Grb2.
Added to a 1.5 ml eppendorf tube were 10 μl of 0.3 μg GST-Grb2 fusion protein(Santa Cruz Biotech Inc.), 10 μl of SPA PVT antibody-binding beads(Amersham Co.), 10 μl of 0.1 μ Ci [^3H]propionylated-hShc peptide(Amersham Co.), 10 μl of 6 μg anti-GST rabbit IgG(Molecular Probes) and 10 μl of a DMSO solution containing each of the compounds obtained in Example 2 and the total volume was adjusted to 200 μl using SH2 buffer solution(20 mM Tris-HCI, 250 mM NaCl and 0.1% cow serum albumin, pH 7.4). The resulting mixture(sample) was reacted at room temperature for 30 minutes. After the completion of the reaction, the Grb2-Shc binding inhibiting activity was determined by examining the extent of comparative binding of [^3H]propionylated-hShc peptides toward Grb2 proteins, expressed by a unit of count per minute(CPM), with a liquid scintillation counter. The same procedure was repeated in the absence of GST-Grb2(blank) or in the absence of any added compounds(control).
The Grb2-Shc binding inhibiting activity was then calculated in accordance with the following equation: [formula]

[2] = Solubility in solvents (physicochemical characteristics, Table 1)
From the text: Based on the above-mentioned spectral data and physicochemical characteristics shown in Table 1, the structures of Compounds(I), (II) and (III) was unequivocally settled. Compounds(II) and (III) are sclerotiorine and isochromopilone, respectively, which are known compounds, while Compound(I) is a novel compound.

phospholipase A2 = conditions: reported in the literature; cited from earlier work

Structure (SMILES) | IC50 [1] | Insoluble [2] | phospholipase A2 inhibiting activity (phospholipase A2) | Soluble ([2]; solvents in which the compound is soluble)
CCC(C)/C=C(C)/C=C/c1cc2c(cn1)=C(OC)[C@@](C)(OC(C)=O)C(=O)C=2Cl (stereo partly shown) [Compound(I)] | ~6 µM and 6 µM | H2O |  | 
CCC(C)/C=C(C)/C=C/C1=CC2=C(Cl)C(=O)[C@](C)(OC(C)=O)C(=O)C2=CO1 (stereo partly shown) [Compound(II), sclerotiorine] | ~12 µM and 12 µM | H2O | phospholipase A2 inhibiting activity | 
CCC(C)/C=C(C)/C=C/C1=CC2=C(Cl)C(=O)[C@](C)(O)C(OC(C)=O)C2CO1 (stereo partly shown) [Compound(III), isochromopilone IV] | ~11 µM and 11 µM |  |  | CHCl3, EtOAc, and MeOH
